Read-outs that look alike come from different tables or passages of the source. Marks after values point to notes of the source that are not given here.
Tests used:
[1] = test system: AGE production; experiment: Test 1: AGE production inhibition (D-glucose + bovine serum albumin, fluorescence); assay type: biochemical
Experimental: Put the sample solution ([…]) of the concentration of cherry-blossom extract (Example 1) and cherry-leaf extract (Example 2), as shown in the chart, below, into a phosphate buffer solution (pH: […]) containing D-glucose (10%) and into bovine serum albumin (fraction 5.1%) and leave it out at a temperature of 60 degrees centigrade for two days. Dilute the reaction solution with distilled water until the intensity of fluorescent light reaches about 500, thus determining its intensity (measurement wavelength: […]). Also, the extract is to be diluted with distilled water, and the substance, after being dissolved in DMSO (dimethyl sulphoxide), is to be diluted with a phosphate buffer solution until DMSO concentration is of 1%. Each value in Chart 1 indicates an average value with standard error of the three examples. Asterisks (*, **) mean a significant difference (i.e. *: p<0.05; **: p<0.01) between the processed samples and the unprocessed samples as determined by Dunnett's Multiple Comparison Test.

[2] = test system: NB1 RGB fibroblast; experiment: Test 3: collagen grating formation of fibroblast glycosylated by glyoxal; assay type: cell-based, human
Experimental: When fibroblast is cultured in the presence of collagen solution, collagen grating formation can be identified. In a similar test, when adding fibroblast that has been glycosylated by the intermediate product of glycation (glyoxal), it is known that the collagen grating formation is inhibited.
The infant-derived NB1 RGB (passage number 22) was suspended in the D-MEM complete media (1.86×10^4 cells/mL). 15 mL each of it was seeded within each cell-culture dish of 14 cm in diameter. After 24 hours, each sample and glyoxal were added until the molecular mass of each dish became […] and incubate the dishes for five days.
Bovine skin-derived collagen (25 mg) was dissolved in 0.1% acetic acid (8.3 mL). Then, a 10-times concentration of Hanks solution ([…]) was added. Then, 0.1% acetic acid (3.5 mL) was added. 1M NaOH was added to neutralize the solution, which was sterilized by filteration to obtain the collagen solution.
The mixed solution of collected fibroblast (5.4×10^4 cell) was suspended in FCS ([…]), and collagen ([…]) was seeded within a 24-well cell-culture plate and allowed to culture for 24 hours and 48 hours. Each culture was observed through a microscope and by the naked eye. For the purpose of comparison, aminoguanidin hydrochloride which is an anti-glycation agent was also examined in the same way.

[3] = test system: normal diploid fibroblast (PDL22-32 cells); experiment: Test 2-2: fibroblast apoptosis caused by CML-collagen (Caspase Assay), extracts and substances; assay type: cell-based, human
Experimental: 50 mg of 1 mM HCL was added to 25 mL of bovine skin-derived collagen and dissolved for two hours incubation at the temperature of 37 degrees centigrade, and was shaken as needed. Then, PBS (pH7.4 25 mL) was added to sodium cyanoborohydride (1.42 g) and to glyoxylic acid (0.9 g) and mixed so as to react at the temperature of 37 degrees centigrade for 24 hours. The reaction solution was then put into a dialysis cell of 10,000 molecular mass for a dialysis-with-water test to be conducted for one day and for a dialysis-with-PBS to be conducted for six days. CML-collagen (21 mg) was obtained by freeze-drying the dialysate.
The fibroblast (7×10^4 cells) was suspended in the D-MEM medium containing FCS (0.5%), penicillin (100 units/mL) and streptomycin ([…]) to be seeded within 96-well plates ([…]). After 24 hours of culture, the dissolved CML-collagen solution (2 mg·mL) and the sample solution ([…]) were added to the medium and cultured for 24 hours. Collagen, instead of CML-collagen, was added to Normal group.
The rate of cell survival was measured by MIT Assay. The result is shown in Chart 2. At the same time, a microscopic test was done, of which the result of formazan formation of fibroblast (×100) is shown in FIG. 2. Apoptosis was identified by measuring active caspase-3/7 by the fluorescence method, of which the result is shown in Chart 3, below. Each value of Charts 2 and 3 is indicated by the average value with standard error of the six examples. Asterisks (*, **) mean a significant difference (i.e. *: p<0.05; **: p<0.01) between the unprocessed samples and Dunnett's multiple comparison test, and f represents p<0.05 by Fisher's PLSD Test.
Here, in Test 2-2, respecting the cherry-blossom extract (Example 1), and the cherry-leaf extract (Example 2) and the seven substances contained in the cherry-blossom extract (Example 1): 1-O-(E)-Caffeoyl-β-D-glucopyranoside, 1-O-(E)-Coumaroyl-β-D-Glucopyranosideand, 1-O-(E)-Cinnamoyl-β-D-glucopyranoside, Kaempferol 3-O-3-D-glucopyranoside, Quercetin 3-O-β-D-glucopyranoside, Kaempferol 3-O-(6″-malony)-β-D-glucopyranoside and Quercetin 3-O-(6″-malony)-β-D-glucopyranoside (Examples 3 to 9), the activity against fibroblast apoptosis, caused by CML-collagen, was identified in the same way as in Test 2-1.
Also, in Test 2-2, PDL22-32 cells were used as the normal diploid fibroblast. As a target for comparison, aminoguanidine hydrochloride which is a medicine for the glycation inhibitor was examined in the same way. Each value of Chart 4 indicates an average value with standard error of the five examples. Asterisks (*, **) mean a significant difference (i.e. *: p<0.05; **: p<0.01) between processed samples and unprocessed samples with CML-collagen, determined by Dunnett's Multiple Comparison Test.

[4] = test system: human diploid fibroblast; experiment: Test 4: AGE production within the fibroblast processed with glyoxal (Western Blotting); assay type: cell-based; details: 1 and 10 mg/mL, 5 days
Experimental: Test 4 examined the activity of the cherry blossom-extract (Example 1) and of the 1-O-(E)-Caffeoyl-β-D-glucopyranoside (Example 3) against the production of AGE (carbon methyl lysine protein) within the fibroblast (human diploid fibroblast) which was processed with glyoxal.
Human diploid fibroblast (passage number 30) was suspended in a D-MEM complete culture media, and 20 mL each was seeded within a cell culture dish of 14 cm in diameter. After 48 hours of culture, samples of various concentrations and of […] of glyoxal were added to 80%-confluent cells and cultured for 5 days. After that, each sample was collected and crushed. Then, protein […] was examined by the Western Blotting method using an anti-AGE antibody to detect AGE. […] In FIG. 6, CaGlu means 1-O-(E)-Caffeoyl-β-D-glucopyranoside (Example 3).

SMILES | IC50 of AGE production inhibition [1] [µg/mL] | Inhibition Ratio (%) of AGE production ([1]; 10 μg/mL) | Inhibition Ratio (%) of AGE production ([1]; 30 μg/mL) | Inhibition Ratio (%) of AGE production ([1]; 100 μg/mL) | Inhibition Ratio (%) of AGE production ([1]; 300 μg/mL) | fibroblast shape, microscopic image after 24 hours of culture (FIG. 4) [2] | amount of collagen grating formation (naked eye, FIG. 3), compared to the control group ([2]; 100 mg/mL, with glyoxal) | Inhibition Ratio (%) of fibroblast apoptosis (Caspase Assay) ([3]; 100 μg/mL) | Inhibition Ratio (%) of AGE production ([1]; 1 μg/mL) | Inhibition Ratio (%) of AGE production ([1]; 3 μg/mL) | inhibitory activity against apoptosis caused by CML-collagen, result in words [3] | Inhibition Ratio (%) of fibroblast apoptosis (Caspase Assay) ([3]; 1 μg/mL) | Inhibition Ratio (%) of fibroblast apoptosis (Caspase Assay) ([3]; 3 μg/mL) | Inhibition Ratio (%) of fibroblast apoptosis (Caspase Assay) ([3]; 10 μg/mL) | Inhibition Ratio (%) of AGE production ([1]; 300 μg/mL, listed as Example 3) [%] | production of AGE within the fibroblast (anti-AGE antibody, FIG. 6) [4] | AGE inhibitory activity in words, related compound with less hydroxyl compared with Example 3 [1] | inhibitory activity against apoptosis caused by CML-collagen, result in words ([3]; listed as Example 6)
Cl.N=C(N)NN [Aminoguanidine Hydrochloride, aminoguanidine hydrochloride, reference compound] | 138 | 1.4 ± 0.1% | 18.1 ± 1.1% | 42.6 ± 1.7** % | 67.7 ± 1.6** % | spherically shaped | showed no increase in the amount of grating formation | 104.8 ± 34* % |  |  |  |  |  |  |  |  |  | 
O=C(O)CC(=O)OCC1O[C@@H](Oc2c(-c3ccc(O)c(O)c3)oc3cc(O)cc(O)c3c2=O)C(O)C(O)[C@@H]1O (stereo partly drawn) [Quercetin 3-O-(6″-malony)-β-D-glucopyranoside] | 36 | 20.4 ± 0.3** % | 43.7 ± 0.7** % | 74.6 ± 0.7** % | 103.9 ± 3.6** % |  |  |  | −10.4 ± 0.9% | 1.9 ± 0.1% | strong inhibitory activity | 21.8 ± 0.7% | 36.6 ± 1.4% | 98.4 ± 4.4* % |  |  |  | 
O=C(/C=C/c1ccc(O)c(O)c1)O[C@@H]1OC(CO)[C@@H](O)C(O)C1O (stereo partly drawn) [1-O-(E)-Caffeoyl-β-D-glucopyranoside] | >300 | 10.7 ± 0.1** % | 19.5 ± 0.3** % | 25.0 ± 0.3** % | 30.0 ± 0.4** % |  |  |  | −3.3 ± 0.1% | 0.9 ± 0.1% |  | 26.2 ± 0.5* % | 37.6 ± 1.2% | 72.2 ± 2.7* % | 30 | inhibited the production of AGE |  | 
O=c1c(O[C@@H]2O[C@H](CO)[C@@H](O)[C@H](O)[C@H]2O)c(-c2ccc(O)c(O)c2)oc2cc(O)cc(O)c12 [Quercetin 3-O-β-D-glucopyranoside] | 30 | 27.6 ± 0.5** % | 49.8 ± 0.7** % | 74.2 ± 1.1** % | 100.8 ± 0.6** % |  |  |  | 8.5 ± 0.1** % | 6.5 ± 0.1* % | strongest inhibitory activity | 44.2 ± 1.5* % | 39.0 ± 1.1* % | 121.5 ± 5.4** % |  |  |  | 
O=C(O)CC(=O)OCC1O[C@@H](Oc2c(-c3ccc(O)cc3)oc3cc(O)cc(O)c3c2=O)C(O)C(O)[C@@H]1O (stereo partly drawn) [Kaempferol 3-O-(6″-malony)-β-D-glucopyranoside] | 78 | 0.2 ± 0.1% | 20.5 ± 0.3** % | 50.8 ± 0.4** % | 91.7 ± 1.7** % |  |  |  | −5.0 ± 0.1% | −8.5 ± 0.1% | relatively weak activity | −18.9 ± 0.6% | −17.3 ± 0.6% | 10.5 ± 0.5% |  |  |  | 
O=C(/C=C/c1ccc(O)cc1)O[C@@H]1OC(CO)[C@@H](O)C(O)C1O (stereo partly drawn) [1-O-(E)-Coumaroyl-β-D-glucopyranoside] | >300 | −8.6 ± 0.1** % | −8.9 ± 0.1** % | −3.7 ± 0.1** % | 11.6 ± 0.1** % |  |  |  | −3.2 ± 0.1% | −8.2 ± 0.1** % |  | 17.2 ± 0.5% | 7.1 ± 0.2% | 51.1 ± 1.9% |  |  | reduced | 
O=c1c(O[C@@H]2O[C@H](CO)[C@@H](O)[C@H](O)[C@H]2O)c(-c2ccc(O)cc2)oc2cc(O)cc(O)c12 [Kaempferol 3-O-β-D-glucopyranoside] | 102 | −2.0 ± 0.1% | 19.4 ± 0.1** % | 45.0 ± 0.5** % | 80.3 ± 0.7** % |  |  |  | −8.4 ± 0.1** % | −9.1 ± 0.2** % | especially strong inhibitory activity | −0.7 ± 0.1% | 27.9 ± 1.1% | 100.7 ± 4.2% |  |  |  | strong inhibitory activity
O=C(/C=C/c1ccccc1)O[C@@H]1OC(CO)[C@@H](O)C(O)C1O (stereo partly drawn) [1-O-(E)-Cinnamoyl-β-D-glucopyranoside] | >300 | −10.9 ± 0.4* % | −7.8 ± 0.1% | 5.7 ± 0.1% | 23.3 ± 0.4** % |  |  |  | −8.4 ± 0.1% | −10.4 ± 0.1% |  | −11.8 ± 0.3% | 19.7 ± 0.9% | 48.6 ± 2.9% |  |  | reduced | 

From US20130196937A1, “AGE PRODUCTION INHIBITOR” (ORYZA OIL & FAT CHEMICAL CO., LTD., priority 2010, published 2013)
